IC50 data for 14 compounds are collected here from ChEMBL document CHEMBL4229546, “Structure-based design and synthesis of 1H-pyrazolo[3,4-d]pyrimidin-4-amino derivatives as Janus kinase 3 inhibitors” (Bioorg Med Chem, 2018).

Assay [1] concerns the target Tyrosine-protein kinase BTK (Homo sapiens, UniProt Q06187).
The target of assay [2] is Tyrosine-protein kinase JAK1 (Homo sapiens, UniProt P23458).
The target in assay [3] is Non-receptor tyrosine-protein kinase TYK2 (Homo sapiens, UniProt P29597).
Non-receptor tyrosine-protein kinase TYK2, sequence (P29597 whole entry): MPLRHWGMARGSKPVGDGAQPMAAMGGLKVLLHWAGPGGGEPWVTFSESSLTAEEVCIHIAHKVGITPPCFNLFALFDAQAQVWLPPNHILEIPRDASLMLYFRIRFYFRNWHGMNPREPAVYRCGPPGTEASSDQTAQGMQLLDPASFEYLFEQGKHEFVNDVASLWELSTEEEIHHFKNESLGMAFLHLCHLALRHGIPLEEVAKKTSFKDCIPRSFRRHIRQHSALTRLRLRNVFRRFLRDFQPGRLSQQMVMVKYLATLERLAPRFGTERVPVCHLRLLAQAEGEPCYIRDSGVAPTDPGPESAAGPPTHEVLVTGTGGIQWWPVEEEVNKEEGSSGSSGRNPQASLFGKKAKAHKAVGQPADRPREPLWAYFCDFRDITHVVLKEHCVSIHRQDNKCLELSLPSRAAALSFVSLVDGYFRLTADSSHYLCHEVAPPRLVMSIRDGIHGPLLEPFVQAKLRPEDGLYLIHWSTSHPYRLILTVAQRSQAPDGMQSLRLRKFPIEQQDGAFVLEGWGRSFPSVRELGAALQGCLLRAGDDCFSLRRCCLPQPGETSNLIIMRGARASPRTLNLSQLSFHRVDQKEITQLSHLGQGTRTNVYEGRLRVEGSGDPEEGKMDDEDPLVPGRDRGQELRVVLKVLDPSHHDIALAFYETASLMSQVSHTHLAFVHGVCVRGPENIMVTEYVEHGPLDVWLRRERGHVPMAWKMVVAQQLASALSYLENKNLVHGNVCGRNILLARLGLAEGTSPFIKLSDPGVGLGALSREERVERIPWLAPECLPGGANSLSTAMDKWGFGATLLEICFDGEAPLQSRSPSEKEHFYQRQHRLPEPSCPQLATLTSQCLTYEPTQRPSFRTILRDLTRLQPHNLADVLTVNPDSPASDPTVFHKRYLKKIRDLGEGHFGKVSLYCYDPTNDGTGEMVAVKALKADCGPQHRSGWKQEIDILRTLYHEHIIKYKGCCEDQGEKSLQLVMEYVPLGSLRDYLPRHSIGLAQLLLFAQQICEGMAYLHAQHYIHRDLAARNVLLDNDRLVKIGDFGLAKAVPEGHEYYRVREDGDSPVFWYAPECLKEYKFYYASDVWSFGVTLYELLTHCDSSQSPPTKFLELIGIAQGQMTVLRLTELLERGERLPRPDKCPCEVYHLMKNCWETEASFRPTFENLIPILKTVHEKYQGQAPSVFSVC

Tyrosine-protein kinase BTK, sequence (Q06187 whole entry): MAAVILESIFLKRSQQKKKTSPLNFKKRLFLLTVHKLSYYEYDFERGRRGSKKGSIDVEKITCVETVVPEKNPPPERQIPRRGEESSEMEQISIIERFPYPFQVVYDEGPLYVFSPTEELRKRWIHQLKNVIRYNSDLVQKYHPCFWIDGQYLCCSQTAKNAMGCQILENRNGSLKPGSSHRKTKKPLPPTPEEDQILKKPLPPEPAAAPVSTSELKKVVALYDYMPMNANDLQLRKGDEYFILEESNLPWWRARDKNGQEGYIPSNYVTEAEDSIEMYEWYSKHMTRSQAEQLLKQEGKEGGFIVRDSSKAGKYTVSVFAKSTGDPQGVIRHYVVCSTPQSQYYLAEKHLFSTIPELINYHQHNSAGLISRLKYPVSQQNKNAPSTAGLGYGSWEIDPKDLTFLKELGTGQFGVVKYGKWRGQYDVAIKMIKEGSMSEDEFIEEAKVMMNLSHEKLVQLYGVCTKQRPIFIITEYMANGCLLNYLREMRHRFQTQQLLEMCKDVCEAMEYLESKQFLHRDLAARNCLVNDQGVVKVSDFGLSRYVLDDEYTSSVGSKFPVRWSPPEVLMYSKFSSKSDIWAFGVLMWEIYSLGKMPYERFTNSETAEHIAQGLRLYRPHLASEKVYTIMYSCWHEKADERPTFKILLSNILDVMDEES
Tyrosine-protein kinase JAK1, sequence (P23458 whole entry): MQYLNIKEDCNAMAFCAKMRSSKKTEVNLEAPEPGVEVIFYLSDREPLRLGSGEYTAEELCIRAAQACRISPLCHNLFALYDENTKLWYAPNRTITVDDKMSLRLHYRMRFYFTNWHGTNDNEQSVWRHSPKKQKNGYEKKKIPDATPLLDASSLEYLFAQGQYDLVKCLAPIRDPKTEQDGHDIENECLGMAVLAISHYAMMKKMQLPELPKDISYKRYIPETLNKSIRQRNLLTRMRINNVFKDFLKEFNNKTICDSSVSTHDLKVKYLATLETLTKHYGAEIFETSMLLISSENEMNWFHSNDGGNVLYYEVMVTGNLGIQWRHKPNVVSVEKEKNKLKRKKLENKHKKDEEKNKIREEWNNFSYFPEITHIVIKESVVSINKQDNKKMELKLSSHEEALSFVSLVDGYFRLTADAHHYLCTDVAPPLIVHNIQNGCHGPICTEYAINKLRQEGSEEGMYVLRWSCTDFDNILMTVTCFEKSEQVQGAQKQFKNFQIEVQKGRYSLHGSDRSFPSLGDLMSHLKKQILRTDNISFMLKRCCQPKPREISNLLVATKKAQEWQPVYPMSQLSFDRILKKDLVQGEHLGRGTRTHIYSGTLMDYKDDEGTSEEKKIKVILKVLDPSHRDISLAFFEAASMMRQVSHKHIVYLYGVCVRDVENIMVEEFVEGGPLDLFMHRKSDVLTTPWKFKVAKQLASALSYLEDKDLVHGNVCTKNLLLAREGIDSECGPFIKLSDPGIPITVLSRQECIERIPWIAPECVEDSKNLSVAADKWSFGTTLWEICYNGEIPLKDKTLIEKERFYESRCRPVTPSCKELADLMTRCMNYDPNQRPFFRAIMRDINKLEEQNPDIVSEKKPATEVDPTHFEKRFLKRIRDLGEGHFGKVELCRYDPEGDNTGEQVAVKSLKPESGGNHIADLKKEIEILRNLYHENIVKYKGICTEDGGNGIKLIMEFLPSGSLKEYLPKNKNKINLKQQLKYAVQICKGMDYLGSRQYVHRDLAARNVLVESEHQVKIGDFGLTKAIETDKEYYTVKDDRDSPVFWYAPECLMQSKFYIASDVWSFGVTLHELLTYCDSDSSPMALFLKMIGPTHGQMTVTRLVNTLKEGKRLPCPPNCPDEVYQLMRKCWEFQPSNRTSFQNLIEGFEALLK

For `C=CC(=O)N1CCC(n2nc(-c3cnn(C)c3)c3c(N)ncnc32)C1` (stereo not given), the results for the IC50 in assay [1], in assay [2] and in assay [3] were 0.203 µM, 0.694 µM and 1.42 µM, respectively.

Take `Cn1cc(-c2nn(CC3CCCN(C(=O)CC#N)C3)c3ncnc(N)c23)cn1` (stereo not given): the IC50 was determined as 0.147 µM in assay [2] and 2.35 µM in assay [3].

On to `Cn1cc(-c2nn(C3CCCN(C(=O)CC#N)C3)c3ncnc(N)c23)cn1` (stereo not given), for which the concentration for half-maximal inhibition (IC50) in assay [2] was 0.342 µM; in assay [3], 2.43 µM.

For `C=CC(=O)N1CCCC(Cn2nc(-c3cnn(CCOC)c3)c3c(N)ncnc32)C1` (stereo not given), the IC50 came out at 0.42 µM in assay [1], 1.67 µM in assay [2] and 3.3 µM in assay [3].

In turn, `COCCn1cc(-c2nn(C3CCN(C#N)CC3)c3ncnc(N)c23)cn1` displayed a concentration for half-maximal inhibition (IC50) in assay [2] of 0.112 µM.

Turning to `C=CC(=O)N1CCCC(Cn2nc(-c3cnn(C)c3)c3c(N)ncnc32)C1` (stereo not given), the half-inhibitory concentration (IC50) in assay [1] amounted to 0.481 µM; in assay [2], 1.95 µM; in assay [3], 3.96 µM.

As for `C=CC(=O)N1CCC(n2nc(-c3cnn(CCOC)c3)c3c(N)ncnc32)C1` (stereo not given), the IC50 stood at 0.126 µM in assay [1], 1.07 µM in assay [2] and 1.72 µM in assay [3].

Regarding `C=CC(=O)N1CCCC(n2nc(-c3cnn(CCOC)c3)c3c(N)ncnc32)C1` (stereo not given), the IC50 is 0.159 µM in assay [1], 1.35 µM in assay [2] and 2.12 µM in assay [3].

As for `COCCn1cc(-c2nn(CC3CCCN(C(=O)CC#N)C3)c3ncnc(N)c23)cn1` (stereo not given), the IC50 in assay [2] is 0.497 µM; in assay [3], above 3 µM.

In turn, `CN(C)CC(=O)N1CCCC(Cn2nc(-c3cnn(C)c3)c3c(N)ncnc32)C1` (stereo not given) yielded an IC50 in assay [2] of 2.29 µM.

As to `COCCn1cc(-c2nn(C3CCCN(C(=O)CC#N)C3)c3ncnc(N)c23)cn1` (stereo not given), the half-maximal inhibitory concentration (IC50) in assay [2] was 0.497 µM; in assay [3], 3.22 µM.

In turn, `CN(C)CC(=O)N1CCCC(n2nc(-c3cnn(C)c3)c3c(N)ncnc32)C1` (stereo not given) registered an IC50 in assay [2] of 1.37 µM.

Take `Cn1cc(-c2nn(C3CCN(C#N)CC3)c3ncnc(N)c23)cn1`: inhibition in assay [2] was half-maximal at 0.165 µM (IC50).

On to `C=CC(=O)N1CCCC(n2nc(-c3cnn(C)c3)c3c(N)ncnc32)C1` (stereo not given), for which the 50% inhibitory concentration (IC50) came out at 0.18 µM in assay [1], 0.618 µM in assay [2] and 1.18 µM in assay [3].

For orientation: IC50 means the concentration needed to halve the response being measured. A high value points to weaker potency in that assay.
